Test results taken from ChEMBL document CHEMBL2311454, “Discovery and evaluation of novel inhibitors of mycobacterium protein tyrosine phosphatase B from the 6-Hydroxy-benzofuran-5-carboxylic acid scaffold” (J Med Chem, 2013).

Assays:
[1] = target: T1, Tyrosine-protein phosphatase non-receptor type 9 (Homo sapiens, UniProt P43378); assay: Inhibition of PTPMEG2 (unknown origin) expressed in Escherichia coli using pNPP substrate after 5 mins by spectrophotometric analysis
T1 sequence (P43378 whole entry): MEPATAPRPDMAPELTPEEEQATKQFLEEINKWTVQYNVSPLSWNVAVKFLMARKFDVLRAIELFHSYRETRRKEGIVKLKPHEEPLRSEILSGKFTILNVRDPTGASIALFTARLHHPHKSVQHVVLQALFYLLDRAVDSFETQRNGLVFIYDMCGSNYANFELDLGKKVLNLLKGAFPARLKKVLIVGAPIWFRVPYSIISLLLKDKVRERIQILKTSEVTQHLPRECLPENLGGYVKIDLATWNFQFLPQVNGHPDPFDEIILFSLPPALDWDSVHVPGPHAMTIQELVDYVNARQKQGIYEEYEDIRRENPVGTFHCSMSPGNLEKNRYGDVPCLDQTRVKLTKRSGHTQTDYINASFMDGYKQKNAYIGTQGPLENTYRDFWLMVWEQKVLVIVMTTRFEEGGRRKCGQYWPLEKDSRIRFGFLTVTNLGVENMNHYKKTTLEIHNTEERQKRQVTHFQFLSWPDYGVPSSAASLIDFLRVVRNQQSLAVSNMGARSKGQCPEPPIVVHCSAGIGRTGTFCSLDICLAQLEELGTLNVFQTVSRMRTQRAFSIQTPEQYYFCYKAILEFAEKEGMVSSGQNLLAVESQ

[2] = target: T2, Tyrosine-protein phosphatase non-receptor type 1 (Homo sapiens, UniProt P18031); assay: Inhibition of PTP1B (unknown origin) expressed in Escherichia coli using pNPP substrate after 5 mins by spectrophotometric analysis
T2 sequence (P18031 whole entry): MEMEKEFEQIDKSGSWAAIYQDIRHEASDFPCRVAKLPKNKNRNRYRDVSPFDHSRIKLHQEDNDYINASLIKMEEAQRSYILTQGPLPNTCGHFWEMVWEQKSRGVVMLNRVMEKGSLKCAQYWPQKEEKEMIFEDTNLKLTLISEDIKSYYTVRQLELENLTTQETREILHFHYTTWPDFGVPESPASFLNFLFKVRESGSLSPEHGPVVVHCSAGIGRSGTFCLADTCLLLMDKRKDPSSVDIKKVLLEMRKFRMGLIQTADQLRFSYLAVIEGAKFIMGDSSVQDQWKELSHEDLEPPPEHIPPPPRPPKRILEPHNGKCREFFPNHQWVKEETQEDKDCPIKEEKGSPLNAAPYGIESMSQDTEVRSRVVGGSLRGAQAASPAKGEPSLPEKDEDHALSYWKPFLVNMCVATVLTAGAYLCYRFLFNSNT

[3] = target: T3, Tyrosine-protein phosphatase non-receptor type 22 (Homo sapiens, UniProt Q9Y2R2); assay: Inhibition of LYP (unknown origin) expressed in Escherichia coli using pNPP substrate after 5 mins by spectrophotometric analysis
T3 sequence (Q9Y2R2 whole entry): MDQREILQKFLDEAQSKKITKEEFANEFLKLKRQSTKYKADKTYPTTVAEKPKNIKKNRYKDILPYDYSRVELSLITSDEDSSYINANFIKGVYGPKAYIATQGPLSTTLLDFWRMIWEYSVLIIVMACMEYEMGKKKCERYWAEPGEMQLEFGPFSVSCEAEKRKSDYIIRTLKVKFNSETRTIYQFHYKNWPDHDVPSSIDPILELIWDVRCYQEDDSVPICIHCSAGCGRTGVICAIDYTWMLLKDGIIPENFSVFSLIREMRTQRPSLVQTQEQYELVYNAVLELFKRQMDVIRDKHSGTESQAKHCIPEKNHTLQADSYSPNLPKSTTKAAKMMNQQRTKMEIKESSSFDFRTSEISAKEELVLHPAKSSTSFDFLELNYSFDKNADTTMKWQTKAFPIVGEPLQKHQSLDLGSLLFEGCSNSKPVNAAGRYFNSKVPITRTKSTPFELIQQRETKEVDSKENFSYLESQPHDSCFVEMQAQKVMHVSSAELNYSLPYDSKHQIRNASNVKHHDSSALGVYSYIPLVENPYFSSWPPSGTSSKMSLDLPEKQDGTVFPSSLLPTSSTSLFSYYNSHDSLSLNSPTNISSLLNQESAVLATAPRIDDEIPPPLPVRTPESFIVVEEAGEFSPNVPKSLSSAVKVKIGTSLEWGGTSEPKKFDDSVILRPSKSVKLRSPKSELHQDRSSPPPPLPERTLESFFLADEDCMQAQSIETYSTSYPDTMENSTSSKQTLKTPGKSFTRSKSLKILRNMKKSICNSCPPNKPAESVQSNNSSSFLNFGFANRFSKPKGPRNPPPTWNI

| SMILES | IC50 [1] | IC50 [2] | IC50 [3] |
| --- | --- | --- | --- |
| C[C@]12CCC(=O)C=C1CC[C@@H]1[C@@H]2CC[C@@]2(C)[C@H]1CC[C@]2(O)C#Cc1c(-c2ccccc2)oc2cc(O)c(C(=O)O)cc12 | > 100 µM | > 50 µM | 12.2 µM |
| O=C(O)c1cc2c(CCc3cccc(F)c3)c(-c3ccccc3)oc2cc1O | 110 µM | 60 µM | 12.4 µM |
| O=C(O)c1cc2c(CCc3ccc(Oc4ccccc4)cc3)c(-c3ccccc3)oc2cc1O | 7.7 µM | 8 µM | 2.2 µM |
| C#Cc1c(-c2ccccc2)oc2cc(O)c(C(=O)O)cc12 | 85 µM | > 50 µM | 50 µM |
| O=C(O)c1cc2c(/C=C\c3cc(F)cc(F)c3)c(-c3ccccc3)oc2cc1O | 9.2 µM | 8 µM | 3.7 µM |
| O=C(O)c1cc2c(CCc3cccc(C(F)(F)F)c3)c(-c3ccccc3)oc2cc1O | 8.6 µM | 7.4 µM | 3.5 µM |
| O=C(O)c1cc2c(C#CCO)c(-c3ccccc3)oc2cc1O | > 100 µM | > 100 µM | > 100 µM |
| O=C(O)c1cc2c(CCc3ccc(OC(F)(F)F)cc3)c(-c3ccccc3)oc2cc1O | 8.4 µM | 8.4 µM | 4.1 µM |
